Converted amounts (≈) assume the structure as drawn.
What was measured:
[1] = target: 50S ribosome; experiment: SPR binding studies; design: species or system S. aureus; settings: 4 °C; for Kd: PBST pH 7.4, KD = Kd/Ka, read-out: KD (equilibrium dissociation constant); for Ka (association rate constant) / Kd (dissociation rate constant): PBST pH 7.4, compound immobilised, 50S ribosome 200-3200 nM
Protocol: In order to gain some insight into the binding mode of the potent inhibitors, SPR experiments were performed. […] The response unit (RU) of surface resonance was compared to determine the different binding affinities between each compound and the 50S ribosome. The association rate constants (Ka) and dissociation rate constant (Kd) represent the rate of association and dissociation in the binding reaction, respectively. The equilibrium dissociation constant (KD) indicated the degree of dissociation of compounds and the 50S ribosome in the equilibrium state. Their binding curves during the experiment were shown in Figure 3, as well as the concentration gradient curves were shown in Figure SI 27–34.
SPR biosensing experiments were performed at 4 °C using the bScreen LB 991 Label-free Microarray System (Berthold Technologies, Germany) and the photo-cross-linker sensor chip. The BIODOT™ AD-1520 Array Printer (BIODOT Inc., USA) was used for printing samples and control on the chip surface. A UV Spectroirradiator 1020 (Amersham Life Science, USA) was used for the photo-cross-linking reaction quickly after the array print.
As described in the reference[32–34] with minor modifications, the ribosome of S. aureus were extracted and purified to obtain 50S ribosome. MRSA (ATCC 43300) was incubated overnight at 37 °C. The bacteria solution was inoculated into a new culture solution, and cells were collected at an OD600 = 1.5. The bacterial culture was centrifuged 3 times at 3,500 rpm using a TX-400 rotor at 4 °C for 30 min, and then the supernatant was discarded. Cells were washed twice with 10 mM Tris-HCl (pH = 7.5), and suspend the precipitate with buffer A (20 mM HEPES-HCl pH = 7.5, 100 mM NH4Cl, 21 mM Mg(OAc)2, 1 mM EDTA, 1 mM DTT). Cells were lysed by repeated (>3×) snap-freezing and thawing, then ultrasonic disintegration was performed. To remove cell debris, the crushed product was centrifuged at 20,000 rpm for 90 min at 4 °C.The lysate layered on 15 ml of a sucrose cushion (10 mM HEPES-HCl pH = 7.5, 500 mM KCl, 25 mM Mg(OAc)2, 1.1 M sucrose, 0.5 mM EDTA, 1 mM DTT) and centrifuged in the ultracentrifuge(Optima^TM TL 100) at 45,000 rpm using a type70Ti rotor at 4 °C for 15 h to obtain ribosomal particles. Pellet was resuspended in 3 ml of buffer E (10 mM HEPES-HCl pH = 7.5, 100 mM KCl, 1 mM Mg(OAc)2, 0.5 mM EDTA, 1 mM DTT), then layered on 9 ml of 7–30% sucrose gradient and ultracentrifuged at 17,100 rpm using a typeSW40Ti rotor at 4 °C for 15 h. The gradient was analysed on the AKTA explorer system. The fractions corresponding to 50S ribosome were collected and PEG 20000 was added to a final concentration of 4.5% w/v. Ribosomes were pelleted by centrifugation at 20,000 rpm for 12 min, the pellet was gently dissolved in 200 µL of storage buffer (10 mM HEPES-HCl pH = 7.5, 15 mM KCl, 60 mM NH4Cl, 10 mM Mg(OAc)2, 1 mM DTT) and then flash-frozen for storage at −80 °C.
Dilute these compounds to a concentration of 10 mM with DMSO as the stationary phase printing working solution. After that, the printing working solution was printed on the sensor chip by the array printer, and each sample was printed four times repeatedly. Four groups of positive control dots (12 rapamycin dots, 3 in each corner) were printed on the four corners of the sensor chip respectively. The sample dots were dried in vacuum, and the sensor chip was quickly transferred to the UV spectroirradiator for a photo-cross-linking reaction. Subsequently, the sensor chip was washed with DMF, methanol, and water for 15 min in turn, followed by blowing dry under nitrogen, and then assembled with Flowcell Cover.
The binding studies were performed with PBST running buffer (pH = 7.4, 0.1% Tween 20) at a constant flow rate of 0.5 µL/s in instrument. 50S Ribosome was diluted separately with PBST running buffer to 200 nM, 400 nM, 800 nM, 1600 nM and 3200 nM and injected consecutively for 600 s at associating stage, followed by running buffer for 360 s at each dissociating stage. […]

[2] = test system: MRSA ATCC 43300; experiment: MIC/MBC by broth micro dilution; format: cell-based, methicillin-resistant S. aureus; settings: Staphylococcus aureus; for MIC: 37 °C, 24 h, read-out: MIC; for MBC: lowest concentration reducing viable counts by 99.9%
Protocol: (§1) All the synthesised 1,2,3-triazole linked pleuromutilin analogues were screened for in vitro antibacterial activities against methicillin-resistant S. aureus (ATCC 43300), S. aureus (ATCC 29213), and two clinical strains of S. aureus (AD3 and 144, isolated from Guangdong Province, China). The MICs and MBCs of the synthesised pleuromutilin derivatives along with pleuromutilin and tiamulin used as the reference antibacterial drugs, were determined by the broth micro dilution methods according to the Clinical and Laboratory Standards Institute (CLSI)[18].
(§2) The MIC of these novel pleuromutilin derivatives against methicillin-resistant S. aureus (ATCC 43300), S. aureus (ATCC 29213), S. aureus (AD3) and S. aureus (144) were determined by using pleuromutilin and tiamulin as positive control. MIC values were determined by the broth micro dilution methods in accordance with the Clinical and Laboratory Standards Institute (2012). Stock solutions of these compounds were dissolved in methanol to make a stock solution with a concentration of 1280 µg/mL. The working solutions (640 µg/mL) were obtained by diluting stock solutions in sterile Mueller-Hinton (MH) broth. The bacterial solution and solutions of these compounds with a final concentration of 0.016–32 µg/mL were distributed into 96-well plates, with a total volume of 200 µL. Three parallel experiments for each compound concentration. The plates were incubated at 37 °C for 24 h.
(§3) MBC values were determined according to CLSI (2003) and previously report with slightly modification[18]^,[28]^,[31]. After obtaining the MIC results, the 96-well plates were incubated at 37 °C for 24 h. 100 µL of the bacterial solution from the wells with no visible growth was inoculated on MH agar plates. The MH agar plates were incubated at 37 °C for colony count. The MBC was determined as the lowest concentration of compound, which reduces the viable counts for 99.9%.

[3] = test system: S. aureus AD3; experiment: MIC/MBC by broth micro dilution; format: cell-based; settings: Staphylococcus aureus, S. aureus AD3 (clinical strain); for MIC: 37 °C, 24 h; for MBC: lowest concentration reducing viable counts by 99.9%
Protocol: as §1, §2, §3

[4] = test system: S. aureus ATCC 29213; experiment: MIC/MBC by broth micro dilution; format: cell-based; settings: Staphylococcus aureus; for MIC: ATCC29213, 37 °C, 24 h; for MBC: ATCC29213, lowest concentration reducing viable counts by 99.9%
Protocol: as §1, §2, §3

[5] = test system: S. aureus 144; experiment: MIC/MBC by broth micro dilution; format: cell-based; settings: Staphylococcus aureus, S. aureus 144 (clinical strain); for MIC: 37 °C, 24 h; for MBC: lowest concentration reducing viable counts by 99.9%
Protocol: as §1, §2, §3

SMILES	Kd [1] [µM]	Ka (association rate constant) [1] [M⁻¹ s⁻¹]	Kd (dissociation rate constant) [1] [s⁻¹]	MIC [2] [µg/mL]	MIC [3] [µg/mL]	MIC [4] [µg/mL]	MIC [5] [µg/mL]	MBC [2] [µg/mL]	MBC [3] [µg/mL]	MBC [4] [µg/mL]	MBC [5] [µg/mL]
C=C[C@]1(C)C[C@@H](OC(=O)CSCCN(CC)CC)[C@]2(C)[C@H](C)CC[C@]3(CCC(=O)[C@H]32)[C@@H](C)[C@@H]1O [Tiamulin, tiamulin, reference compound]	0.0363	122	4.44e-06	0.5 (≈ 1.01 µM)	1 (≈ 2.03 µM)	0.5 (≈ 1.01 µM)	1 (≈ 2.03 µM)	1 (≈ 2.03 µM)	2 (≈ 4.05 µM)	1 (≈ 2.03 µM)	2 (≈ 4.05 µM)
C=C[C@]1(C)C[C@@H](OC(=O)Cn2cc(CN3CCN(C)CC3)nn2)[C@]2(C)[C@H](C)CC[C@]3(CCC(=O)[C@H]32)[C@@H](C)[C@@H]1O [Compound 48, 22-(2-(4-(4-Methyl-piperazin-1-yl)-methyl)-1H-1,2,3-triazol-1-yl)-22-deoxy pleuromutilin]				8 (≈ 14.8 µM)	16 (≈ 29.5 µM)	16 (≈ 29.5 µM)	32 (≈ 59.1 µM)	16 (≈ 29.5 µM)	32 (≈ 59.1 µM)	32 (≈ 59.1 µM)	32 (≈ 59.1 µM)
C=C[C@]1(C)C[C@@H](OC(=O)Cn2cc(CN3CCN(c4cccc([N+](=O)[O-])c4)CC3)nn2)[C@]2(C)[C@H](C)CC[C@]3(CCC(=O)[C@H]32)[C@@H](C)[C@@H]1O [Compound 63, 22-(2-(4-(4-(3-Nitrophenyl)-piperazin-1-yl)-methyl)-1H-1,2,3-triazol-1-yl)-22-deoxy pleuromutilin]	3.48	992	0.00345	2 (≈ 3.08 µM)	2 (≈ 3.08 µM)	4 (≈ 6.17 µM)	4 (≈ 6.17 µM)	2 (≈ 3.08 µM)	4 (≈ 6.17 µM)	8 (≈ 12.3 µM)	16 (≈ 24.7 µM)
C=C[C@]1(C)C[C@@H](OC(=O)Cn2cc(CN3CCN(c4ccc(O)cc4)CC3)nn2)[C@]2(C)[C@H](C)CC[C@]3(CCC(=O)[C@H]32)[C@@H](C)[C@@H]1O [Compound 67, 22-(2-(4-(4-(4-Hydroxyphenyl)-piperazin-1-yl)-methyl)-1H-1,2,3-triazol-1-yl)-22-deoxy pleuromutilin]				8 (≈ 12.9 µM)	16 (≈ 25.8 µM)	16 (≈ 25.8 µM)	32 (≈ 51.6 µM)	16 (≈ 25.8 µM)	> 32	32 (≈ 51.6 µM)	32 (≈ 51.6 µM)

Continued, in another order:

Kd [1] [µM]	Ka (association rate constant) [1] [M⁻¹ s⁻¹]	Kd (dissociation rate constant) [1] [s⁻¹]	MIC [2] [µg/mL]	MIC [3] [µg/mL]	MIC [4] [µg/mL]	MIC [5] [µg/mL]	SMILES	MBC [2] [µg/mL]	MBC [3] [µg/mL]	MBC [4] [µg/mL]	MBC [5] [µg/mL]
			4 (≈ 6.43 µM)	8 (≈ 12.9 µM)	8 (≈ 12.9 µM)	8 (≈ 12.9 µM)	C=C[C@]1(C)C[C@@H](OC(=O)Cn2cc(CN3CCN(c4cccc(F)c4)CC3)nn2)[C@]2(C)[C@H](C)CC[C@]3(CCC(=O)[C@H]32)[C@@H](C)[C@@H]1O [Compound 54, 22-(2-(4-(4-(3-Fluorophenyl)-piperazin-1-yl)-methyl)-1H-1,2,3-triazol-1-yl)-22-deoxy pleuromutilin]	4 (≈ 6.43 µM)	16 (≈ 25.7 µM)	8 (≈ 12.9 µM)	16 (≈ 25.7 µM)
8.66	3800	0.0329	1 (≈ 1.62 µM)	2 (≈ 3.24 µM)	2 (≈ 3.24 µM)	4 (≈ 6.47 µM)	C=C[C@]1(C)C[C@@H](OC(=O)Cn2cc(CN3CCN(c4cccc(C)c4)CC3)nn2)[C@]2(C)[C@H](C)CC[C@]3(CCC(=O)[C@H]32)[C@@H](C)[C@@H]1O [Compound 51, 22-(2-(4-(4-(m-Tolyl)-piperazin-1-yl)-methyl)-1H-1,2,3-triazol-1-yl)-22-deoxy pleuromutilin]	2 (≈ 3.24 µM)	4 (≈ 6.47 µM)	4 (≈ 6.47 µM)	8 (≈ 12.9 µM)
51		0.00403	2 (≈ 3.22 µM)	4 (≈ 6.43 µM)	4 (≈ 6.43 µM)	8 (≈ 12.9 µM)	C=C[C@]1(C)C[C@@H](OC(=O)Cn2cc(CN3CCN(c4ccccc4F)CC3)nn2)[C@]2(C)[C@H](C)CC[C@]3(CCC(=O)[C@H]32)[C@@H](C)[C@@H]1O [Compound 53, 22-(2-(4-(4-(2-Fluorophenyl)-piperazin-1-yl)-methyl)-1H-1,2,3-triazol-1-yl)-22-deoxy pleuromutilin]	4 (≈ 6.43 µM)	8 (≈ 12.9 µM)	8 (≈ 12.9 µM)	8 (≈ 12.9 µM)
			4 (≈ 6.31 µM)	4 (≈ 6.31 µM)	8 (≈ 12.6 µM)	8 (≈ 12.6 µM)	C=C[C@]1(C)C[C@@H](OC(=O)Cn2cc(CN3CCN(c4ccccc4OC)CC3)nn2)[C@]2(C)[C@H](C)CC[C@]3(CCC(=O)[C@H]32)[C@@H](C)[C@@H]1O [Compound 59, 22-(2-(4-(4-(2-Methoxyphenyl)-piperazin-1-yl)-methyl)-1H-1,2,3-triazol-1-yl)-22-deoxy pleuromutilin]	4 (≈ 6.31 µM)	16 (≈ 25.2 µM)	8 (≈ 12.6 µM)	16 (≈ 25.2 µM)
